The values that follow come from US20230093099A1, “COMPOUNDS AND METHODS OF TREATING CANCERS” (CULLGEN (SHANGHAI), INC., priority 2019, published 2023).

What all share (assay type): cell-based
One data set deals with MOLT-4 cells. Put plainly: Cell viability assay (CellTiter-Glo) in MOLT-4 cells. The note with it: Homo sapiens, 72 h, MOLT-4, T-ALL, 3 days. The procedure:
(§1) MV4;11, RS4;11, Kasumi-1, HEL and other cells were treated with NVP-BSK805, TG101209 or selected degraders for 3 days at indicated concentrations following a 3-fold serial dilution.
(§2) HEL, RS4;11, MV4;11, Kasumi-1 and other cells were cultured at 37° C. with 5% CO2 in RPMI 1640 or DMEM Medium supplemented with 10% fetal bovine serum. Cells were authenticated using the short tandem repeat (STR) assays. Mycoplasma test results were negative.
(§3) Cells were seeded at a density of 5000 cells per well in 96-well assay plates and treated with test compounds following a 8-point or 12-point 3-fold serial dilution. Three days later, cell viability was determined using the CellTiter-Glo assay kit according to the manufacturer's instructions. The dose-response curves were determined and IC50 values were calculated using the GraphPad Prism software following a nonlinear regression (least squares fit) method.

The subject of the next data set is NOMO-1 cells. Put plainly: Cell viability assay (CellTiter-Glo) in NOMO-1 cells. Conditions: Homo sapiens, 72 h, NOMO-1, AML, 3 days. The procedure:
as §1, §2, §3
For orientation: Cellular ATP, detected with luciferase, serves as a proxy for viable cell number.

The subject of a further data set is SU-DHL-1 cells. Put plainly: Cell viability assay (CellTiter-Glo) in SU-DHL-1 cells. The note with it: Homo sapiens, 72 h, SU-DHL-1, large cell lymphoma, 3 days. On the procedure: as §1, §2, §3
The subject of data set [1] is immortalized human lung fibroblast IMR-90 cells. Put plainly: Cell viability of non-cancerous lung fibroblast IMR-90 cells. The note with it: IMR-90, 3 days, 3-fold serial dilution (FIG. 6). On the procedure:
Immortalized human lung fibroblast IMR-90 and keratinocyte HACAT cells were treated with JA-189 or JA-213 for 3 days at indicated concentrations following a 3-fold serial dilution.
as §3

The next data set concerns the target T1, JAK2-V617F (Homo sapiens, UniProt O60674, V617F).
T1 construct: immunoblot of JAK1/2/3 proteins expressed in HEL cells; endogenous in cells; host or cells: HEL cells
Put plainly: Immunoblot of JAK2 protein level in HEL cells. Conditions: 24 hours; for JAK2 protein level: HEL cells, immunoblot (FIG. 1). The procedure: (§4) HEL cells harboring JAK2-V617F mutation were treated with compounds at indicated concentrations for 24 hours. […] The concentrations required to reduce JAK2-V617 by 50% (DC50) were below 60 nM for compound JA-213.
as §2
(§5) Rabbit anti-JAK1 antibody (3344S), anti-JAK2 antibody (3230S), anti-JAK3 antibody (8827S), anti-TYK2 antibody (14193S), anti-FLT3 antibody (3462S), anti-RET antibody (14556S), anti-phospho-STAT3 (Tyr705) antibody (9145S) and anti-phospho-STAT5 (Tyr694) antibody (4322S) were purchased from Cell Signaling Technology. Rabbit anti-GSPT1 antibody (ab126090) was purchased from Abcam. HRP-conjugated anti-α-tubulin antibody was produced in house. Media and other cell culture reagents were purchased from Thermo Fisher. The CellTiter-Glo Luminescent Assay kit was purchased from Promega.
Cultured cells were washed with cold PBS once and lysed in cold RIPA buffer supplemented with protease inhibitors and phosphatase inhibitors (Beyotime Biotechnology). The solutions were then incubated at 4° C. for 30 minutes with gentle agitation to fully lyse cells. Cell lysates were centrifuged at 13,000 rpm for 10 minutes at 4° C. and pellets were discarded. Total protein concentrations in the lysates were determined by BCA assays (Beyotime Biotechnology). Cell lysates were mixed with Laemmli loading buffer to 1× and heated at 99° C. for 5 min. Proteins were resolved on SDS-PAGE and visualized by chemiluminescence. Images were taken by a ChemiDoc MP Imaging system (Bio-Rad). Protein bands were quantitated using the accompanied software provided by Bio-Rad.
On the technique in general: A western blot detects proteins with antibodies after separation by electrophoresis.

The next data set addresses T2, JAK1 (Homo sapiens, UniProt P23458).
T2 construct: immunoblot of JAK1/3 proteins expressed in RS4;11 cells; endogenous in cells; host or cells: RS4;11 cells
Put plainly: Immunoblot of JAK1 protein level in HEL cells. Conditions: 24 hours, immunoblot (FIG. 1). On the procedure:
as §4, §2, §5
(§6) Cultured cells were washed with cold PBS once and lysed in cold RIPA buffer supplemented with protease inhibitors and phosphatase inhibitors (Beyotime Biotechnology). […] Total protein concentrations in the lysates were determined by BCA assays (Beyotime Biotechnology). […] Protein bands were quantitated using the accompanied software provided by Bio-Rad.

A further data set has as its target T3, JAK3 (Homo sapiens, UniProt P52333).
T3 construct: immunoblot of JAK1/2/3 proteins expressed in HEL cells; endogenous in cells; host or cells: HEL cells
T3 sequence (P52333 1-1124): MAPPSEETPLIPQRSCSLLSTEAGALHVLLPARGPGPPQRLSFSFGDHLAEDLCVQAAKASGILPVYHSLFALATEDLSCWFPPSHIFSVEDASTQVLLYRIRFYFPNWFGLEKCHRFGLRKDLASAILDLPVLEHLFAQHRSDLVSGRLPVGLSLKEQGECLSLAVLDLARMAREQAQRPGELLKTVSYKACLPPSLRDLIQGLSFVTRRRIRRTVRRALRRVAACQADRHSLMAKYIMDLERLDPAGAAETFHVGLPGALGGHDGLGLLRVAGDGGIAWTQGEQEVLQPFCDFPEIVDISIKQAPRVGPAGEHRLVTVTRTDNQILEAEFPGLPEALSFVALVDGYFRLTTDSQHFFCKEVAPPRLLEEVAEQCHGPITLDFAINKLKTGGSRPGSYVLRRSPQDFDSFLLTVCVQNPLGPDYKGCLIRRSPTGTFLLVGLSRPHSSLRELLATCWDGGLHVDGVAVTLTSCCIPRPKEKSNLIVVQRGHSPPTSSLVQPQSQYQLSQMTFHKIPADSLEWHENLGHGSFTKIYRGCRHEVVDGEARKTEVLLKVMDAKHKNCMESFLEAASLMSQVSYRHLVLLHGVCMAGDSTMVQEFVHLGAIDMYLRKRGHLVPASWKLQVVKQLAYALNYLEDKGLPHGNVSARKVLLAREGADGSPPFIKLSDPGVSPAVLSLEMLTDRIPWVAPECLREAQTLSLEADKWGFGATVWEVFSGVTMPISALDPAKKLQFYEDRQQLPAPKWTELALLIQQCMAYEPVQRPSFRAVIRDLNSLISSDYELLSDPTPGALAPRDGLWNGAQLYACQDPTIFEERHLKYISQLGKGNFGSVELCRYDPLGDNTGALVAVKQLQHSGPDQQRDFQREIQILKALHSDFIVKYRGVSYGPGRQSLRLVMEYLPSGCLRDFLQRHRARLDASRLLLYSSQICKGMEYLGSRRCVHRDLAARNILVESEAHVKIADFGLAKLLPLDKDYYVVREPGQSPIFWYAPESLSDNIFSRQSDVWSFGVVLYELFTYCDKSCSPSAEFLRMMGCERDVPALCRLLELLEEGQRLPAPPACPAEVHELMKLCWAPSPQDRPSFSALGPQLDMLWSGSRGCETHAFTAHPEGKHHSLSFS
Put plainly: Immunoblot of JAK3 protein level in HEL cells. Conditions: immunoblot (FIG. 1). The procedure:
(§7) To confirm JA-189 and JA-213 are true JAK degraders, HEL cell were treated with these two compounds at various compounds concentrations.
as §2, §5, §6

The test system of another data set is p-STAT5. Put plainly: Immunoblot of p-STAT5 (downstream signaling) in HEL cells. The note with it: immunoblot (FIG. 1). On the procedure: as §7, §2, §5, §6

T1 sequence (O60674 whole entry V617F): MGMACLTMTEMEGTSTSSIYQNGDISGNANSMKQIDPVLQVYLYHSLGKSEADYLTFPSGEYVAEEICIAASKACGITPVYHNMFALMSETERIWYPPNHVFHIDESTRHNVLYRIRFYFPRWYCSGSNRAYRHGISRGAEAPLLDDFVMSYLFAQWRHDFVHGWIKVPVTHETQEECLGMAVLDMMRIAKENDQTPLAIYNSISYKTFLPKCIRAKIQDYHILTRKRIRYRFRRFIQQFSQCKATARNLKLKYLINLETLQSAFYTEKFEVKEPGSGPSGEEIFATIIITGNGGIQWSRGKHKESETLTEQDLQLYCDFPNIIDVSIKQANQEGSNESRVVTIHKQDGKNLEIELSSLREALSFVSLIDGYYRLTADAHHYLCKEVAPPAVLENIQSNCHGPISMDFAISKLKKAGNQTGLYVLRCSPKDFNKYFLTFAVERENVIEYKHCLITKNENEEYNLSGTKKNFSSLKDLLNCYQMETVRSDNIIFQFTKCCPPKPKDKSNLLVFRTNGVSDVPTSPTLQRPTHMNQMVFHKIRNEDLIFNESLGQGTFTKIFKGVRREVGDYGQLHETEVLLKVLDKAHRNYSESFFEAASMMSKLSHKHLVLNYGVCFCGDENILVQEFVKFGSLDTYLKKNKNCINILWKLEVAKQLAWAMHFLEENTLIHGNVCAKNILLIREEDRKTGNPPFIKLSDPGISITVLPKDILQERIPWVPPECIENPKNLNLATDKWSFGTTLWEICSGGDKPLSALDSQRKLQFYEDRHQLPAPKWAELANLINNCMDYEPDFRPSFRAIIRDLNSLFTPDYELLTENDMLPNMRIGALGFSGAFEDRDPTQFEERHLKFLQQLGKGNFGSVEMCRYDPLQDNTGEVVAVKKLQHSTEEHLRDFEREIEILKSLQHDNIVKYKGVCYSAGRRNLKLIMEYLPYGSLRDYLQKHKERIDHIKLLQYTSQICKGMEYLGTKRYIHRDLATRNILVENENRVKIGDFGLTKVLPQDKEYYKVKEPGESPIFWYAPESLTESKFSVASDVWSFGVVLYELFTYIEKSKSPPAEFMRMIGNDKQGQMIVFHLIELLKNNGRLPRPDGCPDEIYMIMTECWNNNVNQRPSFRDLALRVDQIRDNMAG
T2 sequence (P23458 whole entry): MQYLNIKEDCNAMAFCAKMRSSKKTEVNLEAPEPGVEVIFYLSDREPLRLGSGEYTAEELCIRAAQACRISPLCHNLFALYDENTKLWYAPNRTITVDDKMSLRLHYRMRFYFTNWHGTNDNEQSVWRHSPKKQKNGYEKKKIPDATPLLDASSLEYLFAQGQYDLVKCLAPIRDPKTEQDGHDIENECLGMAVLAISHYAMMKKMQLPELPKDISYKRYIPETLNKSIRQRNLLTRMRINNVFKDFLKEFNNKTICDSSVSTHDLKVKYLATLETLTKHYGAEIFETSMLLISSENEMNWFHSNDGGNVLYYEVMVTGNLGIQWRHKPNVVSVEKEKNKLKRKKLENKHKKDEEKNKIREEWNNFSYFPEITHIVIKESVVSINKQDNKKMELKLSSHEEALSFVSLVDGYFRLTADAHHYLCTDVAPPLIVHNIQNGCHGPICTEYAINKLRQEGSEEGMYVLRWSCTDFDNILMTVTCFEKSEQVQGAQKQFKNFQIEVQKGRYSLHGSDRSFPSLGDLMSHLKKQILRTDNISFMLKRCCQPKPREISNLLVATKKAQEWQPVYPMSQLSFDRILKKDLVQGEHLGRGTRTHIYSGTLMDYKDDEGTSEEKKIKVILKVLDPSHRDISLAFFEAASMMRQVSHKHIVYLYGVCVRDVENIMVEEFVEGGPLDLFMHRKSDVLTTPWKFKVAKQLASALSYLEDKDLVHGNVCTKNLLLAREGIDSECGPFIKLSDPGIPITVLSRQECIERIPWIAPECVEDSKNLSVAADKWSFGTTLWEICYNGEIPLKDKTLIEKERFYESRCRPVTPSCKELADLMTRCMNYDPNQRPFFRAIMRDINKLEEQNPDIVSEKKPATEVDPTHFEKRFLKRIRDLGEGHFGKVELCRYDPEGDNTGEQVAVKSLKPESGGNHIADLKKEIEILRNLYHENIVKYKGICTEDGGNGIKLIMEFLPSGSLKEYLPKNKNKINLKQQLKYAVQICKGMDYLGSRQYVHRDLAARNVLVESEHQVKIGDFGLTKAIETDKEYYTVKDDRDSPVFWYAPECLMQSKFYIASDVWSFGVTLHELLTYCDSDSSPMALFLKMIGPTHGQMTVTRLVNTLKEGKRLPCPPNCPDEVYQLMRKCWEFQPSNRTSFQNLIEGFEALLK

For orientation: IC50 means the point on the concentration scale where inhibition reaches its midpoint. On to `O=C1CCC(N2C(=O)c3ccc(NCCCCCC(=O)N4CCC(n5cc(-c6cnc7cccc(-c8cc(F)c(CN9CCOCC9)c(F)c8)c7n6)cn5)CC4)cc3C2=O)C(=O)N1` (centres unmarked) [JA-189, 5-((6-(4-(4-(8-(3,5-difluoro-4-(morpholinomethyl)phenyl)quinoxalin-2-yl)-1H-pyrazol-1-yl)piperidin-1-yl)-6-oxohexyl)amino)-2-(2,6-dioxopiperidin-3-yl)isoindoline-1,3-dione], for which the IC50 was 6.36 nM with MOLT-4 cells, 53.2 nM with NOMO-1 cells and 222 nM with SU-DHL-1 cells. In data set [1], the “sensitivity of non-cancerous cells (cell viability)” value is reported as “not sensitive”. Further, the JAK2 protein level result on JAK2-V617F was “able to reduce JAK1, JAK2 and JAK3 protein levels”. On JAK1, the JAK1 protein level entry is “able to reduce JAK1, JAK2 and JAK3 protein levels”. The JAK3 protein level result on JAK3 was “able to reduce JAK1, JAK2 and JAK3 protein levels”. The “down stream signaling, p-STAT5 band” value with p-STAT5 is “weaker bands of p-STAT3 and p-STAT5”.

Take `CS(=O)(=O)c1ccc(-c2cccc3nc(Nc4ccc(N5CCN(CC(=O)NCCCCCCCCNc6ccc7c(c6)C(=O)N(C6CCC(=O)NC6=O)C7=O)CC5)cc4)nn23)cc1` (centres unmarked) [JA-213]: the IC50 was 16.5 nM in the data set with MOLT-4 cells, 81.7 nM with NOMO-1 cells and 319 nM with SU-DHL-1 cells. Moreover, the “sensitivity of non-cancerous cells (cell viability)” value in data set [1] was “not sensitive”. The DC50 on JAK2-V617F (HEL cells harboring JAK2-V617F, immunoblot, read-out: concentration required to reduce JAK2-V617 by 50% (DC50)) was under 60 nM. The JAK2 protein level result at JAK2-V617F is “able to reduce JAK1, JAK2 and JAK3 protein levels”. The JAK1 protein level entry on JAK1 is “able to reduce JAK1, JAK2 and JAK3 protein levels”. Besides, at JAK3, the JAK3 protein level result is “able to reduce JAK1, JAK2 and JAK3 protein levels”. Also, the “down stream signaling, p-STAT5 band” value in the data set with p-STAT5 was “weaker bands of p-STAT3 and p-STAT5”.
